Measurements as given in patent US11679111B2, “Fatty acid synthase inhibitors” (priority 2016, dated 2023).
Like-named read-outs stand apart in the source and are kept apart here.

How the values were obtained:
BT474 cells = assay: Acetate and glucose incorporation into lipids in HER2+ BT474 breast cancer cell line; assay type: cell-based; settings: Homo sapiens
Experimental: Incorporation of radiolabeled glucose or acetate in total lipids was measured according to published methods (Haystead and Hardie, 1986). HepG2 cells (80% confluent in 12 wells plates) were starved overnight in MEM Alpha, the medium was then changed with DMEM medium containing 0.1 g/L glucose 10% FBS and 5 μM insulin and 1 μCi 3-[^3H] D-glucose or 1 μCi [^3H]-acetate in addition to different concentrations of each compound. After incubation for 1 hour at 37° C., 5% CO2, the cells were washed with ice cold PBS and detached by treating with 100 μl trypsin for 10 min then 1 ml of ice cold PBS was added. The cells suspension was then sonicated for 3 times in 30 seconds intervals and kept on ice. From each well 1 ml of cell lysate was added to a 4 ml scintillation vial and 2 ml of MicroScint-E was added. The vials were mixed thoroughly then centrifuged for 30 min at 3000 rpm and the ^3H radioactivity was measured by liquid scintillation counting.
T474 cells were seeded in 6 well plates in 10% FBS 4.5 g/L glucose DMEM at a density of 400,000 cells/well. After 24 hours the media was changed with 0.1 g/L glucose DMEM containing different concentrations of HS-106. […] To each fraction, 1 ml of 25 g/L Butyl PBD dissolved in Toluene was added and radioactivity was measured by scintillation counting.

[1] = 15 mg/kg IP
in vivo = settings: MMTV-Neu, mouse, 15 mg/kg, n=3
human FASN = target: T1, human FASN (Homo sapiens, UniProt P49327); assay: FASN activity assay, 2-[14C] malonyl CoA incorporation into lipids by purified enzyme; assay type: biochemical
T1 construct: endogenous in cells; host or cells: BT474 cells; endogenous enzyme purified by ammonium sulfate cuts and Sephacryl S-300 gel filtration, about 85% pure
Experimental: Human FASN activity was measured by monitoring the incorporation of 2-[^14C] malonyl CoA into fatty acids using liquid scintillation counting by a method similar to the one described by Richardson et al (Richardson and Smith, 2007). FASN (10 μg/ml of PBS containing 1 mM DTT and 1 mM EDTA) was pre-incubated with different concentrations of HS-106 (final DMSO concentration 1%) at 37° C. for 30 minutes, then substrates were added (20 μM acetyl CoA and 200 μM NADPH) in a total reaction volume of 100 μl. The reaction was initiated by adding 10 μl of 50 μM malonyl CoA spiked with 0.05 μCi of 2-[^14C] malonyl CoA. After incubation for 30 minutes at 37° C., lipids were extracted 3 times with 150 μl (2:1, v/v) chloroform:methanol. Then, to the pooled organic phases, 1 ml of toluene containing 25 g/L Butyl-PBD was added and radioactivity was measured by liquid scintillation counting.
Confluent BT474 cells grown in high glucose DMEM with 10% FBS, were scraped and washed two times with ice cold PBS. […]
Human FASN activity was measured by monitoring the incorporation of 2-[^14C] […] Then, to the pooled organic phase, 1 ml of Toluene containing […] Butyl PBD was added and radioactivity was measured by scintillation counting. […]

T1 sequence (P49327 whole entry): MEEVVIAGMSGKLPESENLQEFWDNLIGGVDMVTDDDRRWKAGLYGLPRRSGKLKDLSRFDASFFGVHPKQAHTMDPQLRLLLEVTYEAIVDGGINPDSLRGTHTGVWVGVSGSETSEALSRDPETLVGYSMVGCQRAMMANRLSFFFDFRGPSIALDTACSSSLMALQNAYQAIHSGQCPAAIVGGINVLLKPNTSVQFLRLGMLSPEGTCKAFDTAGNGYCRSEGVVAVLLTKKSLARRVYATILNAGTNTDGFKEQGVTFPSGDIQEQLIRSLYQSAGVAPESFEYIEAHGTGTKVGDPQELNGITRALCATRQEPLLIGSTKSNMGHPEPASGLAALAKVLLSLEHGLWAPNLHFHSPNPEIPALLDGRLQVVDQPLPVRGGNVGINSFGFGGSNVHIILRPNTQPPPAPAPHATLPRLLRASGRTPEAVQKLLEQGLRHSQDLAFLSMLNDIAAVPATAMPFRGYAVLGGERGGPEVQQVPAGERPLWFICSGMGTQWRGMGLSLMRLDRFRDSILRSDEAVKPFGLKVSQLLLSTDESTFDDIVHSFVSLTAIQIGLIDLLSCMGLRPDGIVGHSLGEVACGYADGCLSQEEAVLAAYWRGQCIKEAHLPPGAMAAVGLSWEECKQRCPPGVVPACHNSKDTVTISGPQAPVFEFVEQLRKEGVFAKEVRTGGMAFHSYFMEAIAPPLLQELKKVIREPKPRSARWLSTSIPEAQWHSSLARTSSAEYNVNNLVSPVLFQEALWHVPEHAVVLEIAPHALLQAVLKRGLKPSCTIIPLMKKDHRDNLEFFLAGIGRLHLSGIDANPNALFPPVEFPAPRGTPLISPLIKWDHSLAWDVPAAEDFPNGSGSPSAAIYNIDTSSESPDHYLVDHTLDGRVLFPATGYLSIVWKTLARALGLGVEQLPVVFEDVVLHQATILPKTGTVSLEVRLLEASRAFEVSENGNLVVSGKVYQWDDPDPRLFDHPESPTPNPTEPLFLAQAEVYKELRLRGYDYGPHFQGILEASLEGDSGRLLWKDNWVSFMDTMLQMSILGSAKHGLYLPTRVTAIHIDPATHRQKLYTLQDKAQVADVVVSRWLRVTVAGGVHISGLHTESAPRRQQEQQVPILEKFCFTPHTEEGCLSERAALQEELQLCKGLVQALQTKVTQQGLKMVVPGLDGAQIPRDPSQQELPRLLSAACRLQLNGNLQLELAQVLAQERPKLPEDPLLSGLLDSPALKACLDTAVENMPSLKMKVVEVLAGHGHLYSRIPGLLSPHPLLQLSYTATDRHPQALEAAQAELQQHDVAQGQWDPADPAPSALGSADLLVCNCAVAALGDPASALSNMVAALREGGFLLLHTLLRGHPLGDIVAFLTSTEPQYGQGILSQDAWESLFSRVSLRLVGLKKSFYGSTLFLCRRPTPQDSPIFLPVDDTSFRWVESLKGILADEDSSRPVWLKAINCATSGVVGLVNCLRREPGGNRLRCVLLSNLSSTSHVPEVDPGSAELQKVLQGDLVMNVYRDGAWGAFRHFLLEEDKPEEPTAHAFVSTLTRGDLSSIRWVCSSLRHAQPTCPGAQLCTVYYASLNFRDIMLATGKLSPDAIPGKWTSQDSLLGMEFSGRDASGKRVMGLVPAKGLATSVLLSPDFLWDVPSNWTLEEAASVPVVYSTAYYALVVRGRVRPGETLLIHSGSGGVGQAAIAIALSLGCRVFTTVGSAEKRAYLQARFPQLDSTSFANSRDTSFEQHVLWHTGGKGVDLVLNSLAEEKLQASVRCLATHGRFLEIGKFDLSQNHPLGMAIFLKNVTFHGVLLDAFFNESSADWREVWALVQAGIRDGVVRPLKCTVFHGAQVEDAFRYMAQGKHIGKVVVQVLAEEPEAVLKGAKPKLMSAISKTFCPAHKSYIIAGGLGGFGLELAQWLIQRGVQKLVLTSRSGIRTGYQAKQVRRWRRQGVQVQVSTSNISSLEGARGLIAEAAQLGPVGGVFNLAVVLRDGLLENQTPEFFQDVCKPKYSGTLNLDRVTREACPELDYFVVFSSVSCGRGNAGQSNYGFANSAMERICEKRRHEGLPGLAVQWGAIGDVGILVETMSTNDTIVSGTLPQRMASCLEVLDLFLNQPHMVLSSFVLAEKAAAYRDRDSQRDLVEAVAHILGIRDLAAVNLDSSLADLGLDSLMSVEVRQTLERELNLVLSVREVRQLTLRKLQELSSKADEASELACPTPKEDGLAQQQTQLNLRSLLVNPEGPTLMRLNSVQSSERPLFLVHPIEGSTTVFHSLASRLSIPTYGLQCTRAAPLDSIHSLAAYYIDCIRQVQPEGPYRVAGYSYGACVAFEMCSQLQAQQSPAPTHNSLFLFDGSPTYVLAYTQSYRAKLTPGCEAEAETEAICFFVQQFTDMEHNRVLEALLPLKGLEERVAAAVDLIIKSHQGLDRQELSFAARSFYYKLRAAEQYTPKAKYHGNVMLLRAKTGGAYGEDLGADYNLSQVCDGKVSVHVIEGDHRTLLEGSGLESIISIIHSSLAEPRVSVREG
Experimental for PBMC: Unfixed PBMCs were exposed to drug for 48 hours, and PBMC viability was assessed by flow cytometry using propidium iodine (PI) exclusion (BD Pharmingen) and Annexin V staining (BD Pharmingen). Viable cells are defined as cells that both exclude PI and are Annexin V negative.

Cc1sc2ncnc(NC3CCN(Cc4ccccc4)C3)c2c1C (racemic) [HS-106, N-(1-benzylpyrrolidin-3-yI)-5,6-dimethylthieno[2,3-d]pyrimidin-4-amine]
IC50 (BT474 cells; BT-474, acetate as tracer, read-out: IC50, acetate incorporation into total lipids): ~1500 nM | IC50 (BT474 cells; BT-474, glucose as tracer, read-out: IC50, glucose incorporation into total lipids): 1660 nM | effect on PBMC viability (PBMC): negligible effects on cell viability | time of appearance in plasma after IP injection [1]: ≤ 5 min | half-life (in vivo; T1/2 tumor tissue): 65.71 ± 0.32 min | half-life (in vivo; ip, T1/2 kidney, 15 mg/kg IP): 9.9 ± 0.01 min | half-life (in vivo; ip, T1/2 liver, 15 mg/kg IP): 9.84 ± 0.09 min | half-life (in vivo; ip, T1/2 plasma, 15 mg/kg IP): 9.81 ± 0.02 min | IC50 (human FASN): 3710 nM | IC50 (human FASN; FIG. 2E, read-out: IC50, native human FASN (purified)): 46 nM
